Results: article PMC7824769, “Identification of Small Molecules Blocking the Pseudomonas aeruginosa Type III Secretion System Protein PcrV” (Biomolecules, 2021)
Like-named read-outs stand apart in the source and are kept apart here.

Experiments:
[1] = test system: J774 cells infected with P. aeruginosa strain PAK; assay: cells; type: cell-based, Pseudomonas aeruginosa; conditions: for Anti-virulence efficacy in the infection assay (in words): 25-200 µM; for viability at 25 µM / viability at 50 µM / viability at 100 µM / viability at 200 µM: Pseudomonas aeruginosa; for viability at 25 µM: J774, compound 25 µM; for viability at 50 µM: J774, compound 50 µM; for viability at 100 µM: J774, compound 100 µM; for viability at 200 µM: J774, compound 200 µM
Protocol: The cell viability assay was performed essentially as described before. J774 cells were seeded in 96-well micro-titer plates (Nunc), 100 µL/well, to a final number of 50,000 cells/well in Dulbecco’s modified Eagle’s medium (DMEM) with glutamax (Merck) supplemented with 10% fetal calf serum (FCS) and 3 µg/mL gentamicin and incubated for 16-18 h. Overnight cultures of the P. aeruginosa strains PAK and PAKpcrV [10] were grown in Luria Broth (LB) on a rotary shaker at 220 rpm at 37 °C. Prior to infection, the bacteria were diluted 1:10 in DMEM + glutamax and incubated for 1 h at 37 °C (shaking). The J774 cells were washed once with PBS, then 30 µL of DMEM with glutamax and 10% FCS supplemented with the potential binders at concentrations of 50, 100, 200, and 400 µM were added to the wells in triplicates. The infection was initiated by adding 30 µL of the diluted bacterial solutions (where the OD600 had been diluted to 0.0008) to each well to initiate infection. This infection results in a final bacterial concentration of OD600 = 0.0004 and a multiplicities of infection (MOI) of approximately 8, with final concentrations of the compounds at 25, 50, 100, and 200 µM in 60 µL of DMEM + glutamax and 5% FCS. In the primary screening, the compounds were run at one concentration (100 µM) in duplicates. As an infection control, the wild-type strain PAK with 1% DMSO was added, and as a positive control, PAKpcrV with 1% DMSO was added into four wells each. After 3 h and 30 min, 10 µL of UptiBlue Viable Cell Counting Kit (Interchime, France) was added to all wells. The infection was followed under the light microscope and the fluorescence (excitation 535 nm and emission 595 nm) was measured at 4, 5, and 6 h in a microplate reader (Synergy™ H4, Biotek). The results were calculated as percentage of living cells compared to uninfected control, where the uninfected control was set to 100% living cells and the infected control was set to 0% living cells. As a control, compounds were added to uninfected cells in a parallel experiment and viability was calculated as above to screen for cell toxicity. A compound was considered toxic if the viability was <80% of the uninfected control after 6 h of incubation and if a visual change of cell morphology was observed by microscopy. Z’ was calculated for each plate to ensure good quality throughout the screening. Only results from plates with a Z’ > 0.4 were counted. Standard deviation was calculated with Gaussian approximation when appropriate and shown as error bars in Figure 3C and Figure 4A.
The T3SS is important for P. aeruginosa infection of eukaryotic cells, and a T3SS activator mutant or a mutant lacking the T3SS tip protein PcrV are not able to infect eukaryotic cells. The macrophage cell line, J774, was infected with the wild-type P. aeruginosa strain PAK, and the potential PcrV binders were added to the wells at a final concentration of 100 µM to screen for inhibition of infection. The T3SS-mediated cytotoxic effect on the eukaryotic cells was measured by using a viability staining method (Uptiblue, Interchim), and the results were measured after 4, 5, and 6 h of infection. The pcrV-mutant (PAKpcrV), which is not able to infect macrophages due to deletion of the PcrV protein, was used as a control.

P. aeruginosa strain PAK = assay: Bacterial toxicity (growth) assay, OD600; type: cell-based, Pseudomonas aeruginosa; conditions: 200, 100, 50 and 25 µM; OD600 for 8 h
Protocol: Overnight culture of the P. aeruginosa strain PAK was diluted in LB (Luria Broth) to an OD600 of 0.2. The bacteria were added into microtiter plates, and 25, 50, 100, and 200 µM of the potential binders were added in triplicates to the bacteria with a final concentration of 1% DMSO. […] Wells with 1% DMSO without substance were used as positive controls.

PcrV = PcrV (Pseudomonas aeruginosa, UniProt G3XD49); assay: 1H NMR relaxation-edited binding experiment; conditions: compound 100 µM, PcrV 10 µM
Protocol: A solution containing 100 µM of the small molecule was prepared from 20 mM stock solution of the tested compound in DMSO and diluted in PBS (pH 7.4) containing trimethylsilyl propanoic acid (TMSP) as an internal standard. This solution was then split into halves and used for preparation of the test and the reference samples as follows: the test sample was prepared by adding 24 µL of 0.211 mM PcrV protein stock solution, resulting in a final protein concentration of 10 µM, whereas the reference sample was prepared by adding the corresponding volume of PBS buffer only before being transferred to 5-mm NMR tubes. The relaxation-edited experiments shown in Figure 3D were recorded on Bruker 600 MHz, and data were acquired at 298 K. Data from 256 scans were accumulated, and a Carr-Purcell-Meiboom-Gill (cpmg) spin-lock of 200 ms was used. Excitation sculpture was applied for water suppression.
To confirm the binding data obtained from the SPR, a secondary qualitative label-free binding experiment based on ^1H-NMR was performed.

[2] = uninfected control = 100%, infected control = 0%, read-out: Viability Assay (% of Uninfected Control) 25 µM
[3] = uninfected control = 100%, infected control = 0%, read-out: Viability Assay (% of Uninfected Control) 50 µM
[4] = uninfected control = 100%, infected control = 0%, read-out: Viability Assay (% of Uninfected Control) 100 µM
[5] = uninfected control = 100%, infected control = 0%

Sequence of PcrV (G3XD49 entry or part of it): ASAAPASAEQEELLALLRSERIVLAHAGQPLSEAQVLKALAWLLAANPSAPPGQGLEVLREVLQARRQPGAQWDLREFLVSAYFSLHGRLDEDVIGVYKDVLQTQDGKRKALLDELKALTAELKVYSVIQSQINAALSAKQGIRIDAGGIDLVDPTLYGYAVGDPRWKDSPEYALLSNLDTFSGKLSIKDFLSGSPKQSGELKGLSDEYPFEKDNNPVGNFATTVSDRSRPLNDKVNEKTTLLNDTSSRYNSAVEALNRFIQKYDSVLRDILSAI

| Compound | Anti-virulence efficacy in the infection assay (in words) [1] | viability at 25 µM [1, 2] | viability at 50 µM [1, 3] | viability at 100 µM [1, 4] | viability at 200 µM [1, 5] | Effect on bacterial growth (P. aeruginosa strain PAK) | viability at 25 µM ([1]; one representative experiment, read-out: Macrophage Viability, wt+25 µM (Figure 3C)) | viability at 50 µM ([1]; one representative experiment, read-out: Macrophage Viability, wt+50 µM (Figure 3C)) | viability at 100 µM ([1]; one representative experiment, read-out: Macrophage Viability, wt+100 µM (Figure 3C)) | 1H NMR binding to PcrV (qualitative) (PcrV) |
| --- | --- | --- | --- | --- | --- | --- | --- | --- | --- | --- |
| Cc1c(Br)ccc(OC[C@@H]2C[C@H]2C(=O)O)c1C (relative stereo) [Compound 32] | as efficacious as or better than H1 | 22% | 21% | 33% | ≤ 38% | without affecting bacterial growth | – | – | – | – |
| Cc1c(Br)ccc(OC[C@@H]2C[C@@H]2C(=O)O)c1C (relative stereo) [Compound 33] | as efficacious as or better than H1 | 24% | 24% | 38% | ≤ 38% | without affecting bacterial growth | – | – | – | – |
| Cc1c(Br)ccc(OCCCC(=O)O)c1C [Compound H1] | – | 12% | 20% | 27% | 28% | – | -4% | 19% | 42% | signal reduction |
